8 compounds from BindingDB's records for doi:10.1016/j.chembiol.2011.12.010 (Boston College, 2012) can be followed below.

Bounds are passed on as bounds.

What all share (assay): In Vitro Enzyme Assay
Test [1] deals with Dual specificity calcium/calmodulin-dependent 3',5'-cyclic nucleotide phosphodiesterase 1C (Human, UniProt Q14123).
In test [2] the target is cGMP-inhibited 3',5'-cyclic phosphodiesterase 3B (Homo sapiens, UniProt Q13370).
Test [3] addresses cAMP and cAMP-inhibited cGMP 3',5'-cyclic phosphodiesterase 10A (Homo sapiens, UniProt Q9Y233).
The target of test [4] is Dual 3',5'-cyclic-AMP and -GMP phosphodiesterase 11A (Homo sapiens, UniProt Q9HCR9).
The target in test [5] is High affinity cAMP-specific 3',5'-cyclic phosphodiesterase 7A (Homo sapiens, UniProt Q13946).
Test [6] deals with Cone cGMP-specific 3',5'-cyclic phosphodiesterase subunit alpha' (Homo sapiens, UniProt P51160).
Test [7] addresses T1, cGMP-dependent 3',5'-cyclic phosphodiesterase (Rattus norvegicus, UniProt Q01062).
T1 sequence (Q01062 whole entry): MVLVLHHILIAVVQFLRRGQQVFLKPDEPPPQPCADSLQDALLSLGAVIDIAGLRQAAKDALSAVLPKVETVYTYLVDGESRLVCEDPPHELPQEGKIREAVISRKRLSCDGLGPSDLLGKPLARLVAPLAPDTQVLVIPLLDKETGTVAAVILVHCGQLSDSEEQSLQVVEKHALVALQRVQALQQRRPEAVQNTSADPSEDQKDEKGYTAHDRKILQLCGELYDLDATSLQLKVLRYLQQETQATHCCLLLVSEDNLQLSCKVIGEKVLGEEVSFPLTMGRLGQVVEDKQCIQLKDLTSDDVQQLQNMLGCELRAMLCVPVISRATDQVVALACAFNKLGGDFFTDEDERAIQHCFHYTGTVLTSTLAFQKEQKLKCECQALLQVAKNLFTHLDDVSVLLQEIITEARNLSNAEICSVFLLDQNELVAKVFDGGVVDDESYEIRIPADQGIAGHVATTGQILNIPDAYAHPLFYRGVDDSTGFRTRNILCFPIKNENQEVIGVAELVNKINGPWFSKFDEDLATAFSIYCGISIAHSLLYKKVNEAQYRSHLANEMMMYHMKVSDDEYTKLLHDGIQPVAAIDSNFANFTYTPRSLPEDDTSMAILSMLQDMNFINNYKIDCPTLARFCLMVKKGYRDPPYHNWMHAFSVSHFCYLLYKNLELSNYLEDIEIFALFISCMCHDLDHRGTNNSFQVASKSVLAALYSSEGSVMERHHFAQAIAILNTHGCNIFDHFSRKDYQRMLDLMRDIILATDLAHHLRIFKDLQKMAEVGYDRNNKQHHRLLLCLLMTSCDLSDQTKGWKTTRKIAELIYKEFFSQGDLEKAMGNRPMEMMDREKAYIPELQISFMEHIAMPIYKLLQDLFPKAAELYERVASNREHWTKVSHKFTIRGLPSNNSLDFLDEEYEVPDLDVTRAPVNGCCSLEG

Chain of cGMP-inhibited 3',5'-cyclic phosphodiesterase 3B (Q13370 whole entry): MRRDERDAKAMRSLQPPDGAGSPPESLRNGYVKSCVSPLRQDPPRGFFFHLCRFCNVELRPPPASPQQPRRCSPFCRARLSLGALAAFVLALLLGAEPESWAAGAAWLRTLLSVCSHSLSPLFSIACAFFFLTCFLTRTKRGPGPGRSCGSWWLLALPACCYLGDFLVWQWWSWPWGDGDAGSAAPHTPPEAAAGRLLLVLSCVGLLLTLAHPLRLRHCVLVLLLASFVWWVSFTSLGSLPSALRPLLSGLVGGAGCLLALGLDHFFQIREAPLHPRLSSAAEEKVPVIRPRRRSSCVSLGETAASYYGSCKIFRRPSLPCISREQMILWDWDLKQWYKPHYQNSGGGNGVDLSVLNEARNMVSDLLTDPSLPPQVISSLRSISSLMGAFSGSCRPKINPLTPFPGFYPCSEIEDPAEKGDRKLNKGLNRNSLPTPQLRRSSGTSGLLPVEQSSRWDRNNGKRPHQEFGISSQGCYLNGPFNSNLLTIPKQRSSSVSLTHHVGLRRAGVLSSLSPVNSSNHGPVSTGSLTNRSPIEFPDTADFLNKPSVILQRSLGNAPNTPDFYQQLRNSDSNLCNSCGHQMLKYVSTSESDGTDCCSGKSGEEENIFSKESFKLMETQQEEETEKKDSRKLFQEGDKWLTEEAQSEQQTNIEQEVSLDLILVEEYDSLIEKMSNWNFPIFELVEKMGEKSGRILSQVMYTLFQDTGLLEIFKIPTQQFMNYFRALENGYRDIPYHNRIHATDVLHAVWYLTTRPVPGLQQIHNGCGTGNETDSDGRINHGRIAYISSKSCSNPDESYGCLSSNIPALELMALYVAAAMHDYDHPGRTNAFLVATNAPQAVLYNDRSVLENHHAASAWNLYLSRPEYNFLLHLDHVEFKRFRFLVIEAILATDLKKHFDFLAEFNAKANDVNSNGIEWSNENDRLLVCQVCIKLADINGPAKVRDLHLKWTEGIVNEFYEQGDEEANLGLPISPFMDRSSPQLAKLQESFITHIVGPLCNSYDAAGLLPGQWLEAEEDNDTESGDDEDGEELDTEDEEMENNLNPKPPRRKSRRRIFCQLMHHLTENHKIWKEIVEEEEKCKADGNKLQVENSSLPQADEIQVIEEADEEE
Chain of Dual 3',5'-cyclic-AMP and -GMP phosphodiesterase 11A (Q9HCR9 whole entry): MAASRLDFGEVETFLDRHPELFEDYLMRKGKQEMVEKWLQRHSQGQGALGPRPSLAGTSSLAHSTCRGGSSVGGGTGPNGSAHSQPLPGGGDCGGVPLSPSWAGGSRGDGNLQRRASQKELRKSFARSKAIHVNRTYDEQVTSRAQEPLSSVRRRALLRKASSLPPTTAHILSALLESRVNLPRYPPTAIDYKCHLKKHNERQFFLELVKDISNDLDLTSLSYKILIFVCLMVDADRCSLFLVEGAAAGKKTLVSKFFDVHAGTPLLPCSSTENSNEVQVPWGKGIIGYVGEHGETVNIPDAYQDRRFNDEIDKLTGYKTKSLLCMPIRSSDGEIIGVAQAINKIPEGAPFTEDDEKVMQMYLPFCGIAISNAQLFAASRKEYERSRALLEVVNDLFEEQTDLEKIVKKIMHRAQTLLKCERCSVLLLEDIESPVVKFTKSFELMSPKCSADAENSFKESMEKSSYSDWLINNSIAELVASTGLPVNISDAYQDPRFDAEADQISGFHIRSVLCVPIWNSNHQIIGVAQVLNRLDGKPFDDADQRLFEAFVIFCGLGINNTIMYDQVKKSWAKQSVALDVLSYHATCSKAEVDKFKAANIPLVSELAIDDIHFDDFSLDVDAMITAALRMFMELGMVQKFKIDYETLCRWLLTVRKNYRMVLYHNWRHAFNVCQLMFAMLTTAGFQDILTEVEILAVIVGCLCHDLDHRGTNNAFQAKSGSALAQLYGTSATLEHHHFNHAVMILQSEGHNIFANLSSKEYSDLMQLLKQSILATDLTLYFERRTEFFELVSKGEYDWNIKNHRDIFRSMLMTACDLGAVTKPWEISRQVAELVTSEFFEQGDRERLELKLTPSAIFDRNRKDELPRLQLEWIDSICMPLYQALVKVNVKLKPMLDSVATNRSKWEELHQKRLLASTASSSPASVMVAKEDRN
Chain of Dual specificity calcium/calmodulin-dependent 3',5'-cyclic nucleotide phosphodiesterase 1C (Q14123 whole entry): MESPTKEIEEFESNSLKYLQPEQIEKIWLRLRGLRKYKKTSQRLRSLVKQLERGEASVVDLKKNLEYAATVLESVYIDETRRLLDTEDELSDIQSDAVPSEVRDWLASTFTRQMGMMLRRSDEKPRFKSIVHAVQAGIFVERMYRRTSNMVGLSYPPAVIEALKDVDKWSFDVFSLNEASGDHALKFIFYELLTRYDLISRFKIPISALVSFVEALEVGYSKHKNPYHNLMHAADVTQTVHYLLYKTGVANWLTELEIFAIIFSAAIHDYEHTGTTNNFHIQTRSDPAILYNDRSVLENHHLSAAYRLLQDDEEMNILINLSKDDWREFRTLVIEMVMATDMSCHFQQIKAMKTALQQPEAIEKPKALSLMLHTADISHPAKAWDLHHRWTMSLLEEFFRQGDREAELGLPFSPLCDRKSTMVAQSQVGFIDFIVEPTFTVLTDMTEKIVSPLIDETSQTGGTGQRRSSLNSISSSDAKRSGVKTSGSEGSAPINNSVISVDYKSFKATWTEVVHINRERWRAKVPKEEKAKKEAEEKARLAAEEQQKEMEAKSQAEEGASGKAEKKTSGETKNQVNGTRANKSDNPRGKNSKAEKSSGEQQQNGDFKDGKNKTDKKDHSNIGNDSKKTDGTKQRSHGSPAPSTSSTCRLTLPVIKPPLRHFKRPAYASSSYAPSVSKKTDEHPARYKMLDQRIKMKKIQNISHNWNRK
Chain of cAMP and cAMP-inhibited cGMP 3',5'-cyclic phosphodiesterase 10A (Q9Y233 whole entry): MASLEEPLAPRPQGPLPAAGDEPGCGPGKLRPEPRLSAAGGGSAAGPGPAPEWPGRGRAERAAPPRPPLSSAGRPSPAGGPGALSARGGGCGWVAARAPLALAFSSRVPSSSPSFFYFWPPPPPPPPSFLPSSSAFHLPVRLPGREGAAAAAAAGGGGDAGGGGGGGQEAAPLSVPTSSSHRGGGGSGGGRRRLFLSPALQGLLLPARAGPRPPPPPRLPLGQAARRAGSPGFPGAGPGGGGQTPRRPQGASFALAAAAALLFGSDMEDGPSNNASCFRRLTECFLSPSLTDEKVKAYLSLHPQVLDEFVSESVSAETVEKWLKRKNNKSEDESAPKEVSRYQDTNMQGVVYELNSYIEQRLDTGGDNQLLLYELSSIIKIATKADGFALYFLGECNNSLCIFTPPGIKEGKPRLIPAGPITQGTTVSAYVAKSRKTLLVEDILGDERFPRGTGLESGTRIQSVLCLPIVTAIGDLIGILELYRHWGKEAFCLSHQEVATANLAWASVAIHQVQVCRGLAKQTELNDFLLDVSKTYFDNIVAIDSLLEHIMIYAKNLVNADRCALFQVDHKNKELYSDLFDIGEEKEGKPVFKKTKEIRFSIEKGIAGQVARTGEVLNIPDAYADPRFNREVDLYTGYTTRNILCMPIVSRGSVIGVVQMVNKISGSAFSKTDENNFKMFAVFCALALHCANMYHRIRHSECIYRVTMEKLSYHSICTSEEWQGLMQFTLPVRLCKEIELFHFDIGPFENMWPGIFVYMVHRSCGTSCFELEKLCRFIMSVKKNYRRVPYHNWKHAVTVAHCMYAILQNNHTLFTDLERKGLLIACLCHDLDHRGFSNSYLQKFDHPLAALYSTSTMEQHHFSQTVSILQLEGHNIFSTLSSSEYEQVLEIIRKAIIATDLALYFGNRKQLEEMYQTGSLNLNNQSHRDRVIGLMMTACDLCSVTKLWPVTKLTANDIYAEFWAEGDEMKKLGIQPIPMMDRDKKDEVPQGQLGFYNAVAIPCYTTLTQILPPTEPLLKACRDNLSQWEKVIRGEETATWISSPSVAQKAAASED
Chain of High affinity cAMP-specific 3',5'-cyclic phosphodiesterase 7A (Q13946 whole entry): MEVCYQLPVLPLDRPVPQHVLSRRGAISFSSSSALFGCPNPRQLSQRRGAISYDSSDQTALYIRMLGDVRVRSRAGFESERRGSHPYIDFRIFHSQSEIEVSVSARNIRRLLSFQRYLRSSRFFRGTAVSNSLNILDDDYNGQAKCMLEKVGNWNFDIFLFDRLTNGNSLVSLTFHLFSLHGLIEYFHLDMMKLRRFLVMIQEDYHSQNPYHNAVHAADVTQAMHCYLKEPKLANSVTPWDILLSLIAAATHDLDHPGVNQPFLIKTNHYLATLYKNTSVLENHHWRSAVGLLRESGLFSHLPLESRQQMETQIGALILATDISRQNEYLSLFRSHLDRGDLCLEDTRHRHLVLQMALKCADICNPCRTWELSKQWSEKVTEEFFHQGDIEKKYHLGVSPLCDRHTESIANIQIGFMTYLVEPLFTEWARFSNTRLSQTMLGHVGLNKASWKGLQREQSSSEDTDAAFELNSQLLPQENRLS

Take `CCCSc1nc2c(c(=O)n1-c1ccccc1)SCC2` [BC11-38]: the IC50 in test [1] and in test [2] was over 100 µM in each case.
In the case of `CCCCSc1nc2c(c(=O)n1-c1ccccc1)SCC2` [BC11-38-1], in test [2], the IC50 – broadly, the point on the concentration scale where inhibition reaches its midpoint – is over 100 µM.
As to `CCCSc1nc2c(c(=O)n1-c1ccccc1OC)SCC2` [BC11-38-4], the IC50 was over 100 µM in test [1], 5.8 µM in test [3], 9.9 µM in test [4] and over 100 µM in test [2].
As for `Cc1ccccc1Nc1ncnc2c1c(-c1ccccc1)cn2-c1ccc(F)cc1`, the IC50 in test [1] and in test [2] was over 100 µM throughout.
`CCCSc1nc2c(c(=O)n1-c1ccc(C)cc1)SCC2` [BC11-38-3]: the IC50 in test [5] was 21.3 µM; in test [1], over 100 µM; in test [4], 7.5 µM; in test [2] it was over 100 µM.
In the case of `CCC(C)Sc1nc2c(c(=O)n1-c1ccccc1)SCC2` (stereo not given) [BC11-38-2], the IC50 in test [6] is 51.2 µM; in test [1], over 100 µM; in test [7], 18.4 µM; in test [2], over 100 µM.
For `CCN(CC)C(=O)c1cc(-c2cccs2)nc2c1c(C)nn2-c1ccccc1C` [BC11-15], the IC50 in test [1] and in test [2] was over 100 µM each time.
With `COc1ccc2c(c1)sc1nc(=O)n(Cc3ccccc3)c(=O)n12` [US9173884, BC11-19-1], in test [4], half-maximal inhibition (IC50) was put at 2 µM.
